Experimental findings from US20240417410A1, “TRICYCLIC COMPOUNDS FOR THE TREATMENT OF CANCER” (Hoffmann-La Roche Inc., priority 2023, published 2024) are described below.

One test concerns the target KRAS G12C-BRAF complex (Homo sapiens (Human), UniProt P01116+P62937, G12C). Nature of the test: KRAS-BRAF with CYPA (500 nM) interaction assay (TR-FRET, Example 136). The format is biochemical. The settings on record: KRAS G12C-BRAF disruption. A general note: TR-FRET usually uses a lanthanide donor and a delayed reading to cut background.
The subject of test [1] is phosphorylation of ERK, KRAS G12D in AGS cells. Put plainly: pERK inhibition assay. Format: cell-based. The note with it: Homo sapiens, AGS, 4 h. Put shortly:
(§1)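 NCI-H358 (KRAS G12C), AGS (G12D) and SW620 (G12V) cells plated overnight, then treated with compound for 4 h in 0.5% DMSO. After fixing and methanol permeabilisation, phospho-ERK was detected by in-cell ELISA (HRP/TMB, OD450). IC50 from a 4-parameter sigmoidal fit.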

The subject of test [2] is phosphorylation of ERK, KRAS G12V in SW620. Put plainly: pERK inhibition assay. Format: cell-based. The settings on record: Homo sapiens, SW-620, 4 h, SW620 cells. The essentials:
as §1

Test [3] has as its system phosphorylation of ERK, KRAS G12C in NCI-H358 cells. Nature of the test: pERK inhibition assay. Format: cell-based. The note with it: Homo sapiens, NCI-H358, 4 h. The essentials:
as §1

A further test concerns SW620 cells (KRAS G12V). Put plainly: Cell viability assay (Cell Counting Kit-8, 3-day). Format: cell-based, human. The note with it: Homo sapiens, SW-620; SW620, 72 hrs incubation. The essentials:
(§2)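 Read-out is CCK-8 absorbance (OD450 minus OD650, 2 hrs after reagent), reflecting NADPH after 72 hrs of compound exposure in 0.5% DMSO. Seeding density was 5,000 cells/well for NCI-H358 and 2,000 for AGS and SW620. IC50 derived by 4-parameter sigmoidal fitting.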
For orientation: Formazan colour is commonly taken as a measure of viable cells.

Another test has as its system AGS cells (KRAS G12D). Put plainly: Cell viability assay (Cell Counting Kit-8, 3-day). The settings on record: Homo sapiens, 72 h, 72 hrs incubation. Format: cell-based, human. The essentials:
as §2

The test system of test [4] is NCI-H358 cells (KRAS G12C). Put plainly: Cell viability assay (Cell Counting Kit-8, 3-day). The format is cell-based, human. The note with it: Homo sapiens, NCI-H358, 72 h, NCI-H358, 72 hrs incubation. The essentials:
as §2

In general, IC50 refers to the concentration at which inhibition is half-maximal. Lower therefore signals greater potency.

KRAS G12C-BRAF complex, sequence (P01116-2 other isoform, or with tags, fused parts or gaps G12C): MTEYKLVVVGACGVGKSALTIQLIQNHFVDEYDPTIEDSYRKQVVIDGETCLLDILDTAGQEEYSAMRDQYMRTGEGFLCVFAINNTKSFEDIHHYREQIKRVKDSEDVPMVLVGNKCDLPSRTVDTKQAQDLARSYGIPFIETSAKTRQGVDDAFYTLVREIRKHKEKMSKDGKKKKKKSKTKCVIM
KRAS G12C-BRAF complex, sequence (P62937 whole entry): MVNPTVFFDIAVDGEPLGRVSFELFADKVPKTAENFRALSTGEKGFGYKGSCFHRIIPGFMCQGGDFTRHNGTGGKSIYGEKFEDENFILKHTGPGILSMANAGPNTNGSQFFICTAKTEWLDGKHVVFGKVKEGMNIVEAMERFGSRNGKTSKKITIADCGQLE

For `CO[C@@H](C)c1ncc(N2CCN(C)CC2)cc1-c1c2c3cc(cc4c3n1CCC4)-c1csc(n1)C[C@H](NC(=O)[C@@H]1C[C@H]1c1cncnc1C)C(=O)N1CCC[C@H](N1)C(=O)OCC(C)(C)C2` (atropisomer, axis not shown; (M)) [Example 112, (1R,2R)-N-[(7S,13S)-(20M)-20-[2-[(1S)-1-methoxyethyl]-5-(4-methylpiperazin-1-yl)-3-pyridyl]-17,17-dimethyl-8,14-dioxo-15-oxa-4-thia-9,21,30,31-tetrazahexacyclo[23.3.1.1^2,5.1^9,13.0^19,27.0^21,26]hentriaconta-1 (28),2,5 (31), 19,25 (29),26-hexaen-7-yl]-2-(4-methylpyrimidin-5-yl)cyclopropanecarboxamide], the concentration for half-maximal inhibition (IC50) against KRAS G12C-BRAF complex came to 10.4 nM; in test [1], 3.4 nM; in test [2], 0.5 nM; in test [3], 0.7 nM; in the test with SW620 cells (KRAS G12V), 0.8 nM; in the test with AGS cells (KRAS G12D) it was 3.4 nM. The same compound showed an IC50 in test [4] of 2.2 nM.

Consider `CO[C@@H](C)c1ncc(N2CCN(CC(F)(F)F)CC2)cc1-c1c2c3cc(cc4c3n1CCC4)-c1csc(n1)C[C@H](NC(=O)[C@H]1[C@H](C)[C@@H]1C)C(=O)N1CCC[C@H](N1)C(=O)OCC(C)(C)C2` (atropisomer, axis not shown; (M)) [Example 86, (1r,2R,3S)-N-[(7S,13S)-(20M)-20-[2-[(1S)-1-methoxyethyl]-5-[4-(2,2,2-trifluoroethyl)piperazin-1-yl]-3-pyridyl]-17,17-dimethyl-8,14-dioxo-15-oxa-4-thia-9,21,30,31-tetrazahexacyclo[23.3.1.1^2,5.1^9,13.0^19,27.0^21,26]hentriaconta-1 (28),2,5 (31),19,25 (29),26-hexaen-7-yl]-2,3-dimethyl-cyclopropanecarboxamide], for which the IC50 on KRAS G12C-BRAF complex worked out at 17.9 nM; in test [1] it was 15 nM; in test [2], 0.8 nM; in test [3], 1.8 nM; with SW620 cells (KRAS G12V) it was 2.5 nM; in the test with AGS cells (KRAS G12D), 45.2 nM. In test [4], this compound had an IC50 of 14.1 nM.

Consider `CO[C@@H](C)c1ncc(N2CCN(C)CC2)cc1-c1c2c3cc(cc4c3n1CCC4)-c1csc(n1)C[C@H](NC(=O)[C@H]1C[C@@H]1c1ccncn1)C(=O)N1CCC[C@H](N1)C(=O)OCC(C)(C)C2` (atropisomer, axis not shown; (M)) [Example 50, (1S,2S)-N-[(7S,13S)-(20M)-20-[2-[(1S)-1-methoxyethyl]-5-(4-methylpiperazin-1-yl)-3-pyridyl]-17,17-dimethyl-8,14-dioxo-15-oxa-4-thia-9,21,30,31-tetrazahexacyclo[23.3.1.1^2,5.1^9,13.0^19,27.0^21,26]hentriaconta-1 (28),2,5 (31), 19,25 (29),26-hexaen-7-yl]-2-pyrimidin-4-yl-cyclopropanecarboxamide], for which the IC50 turned out to be 22 nM against KRAS G12C-BRAF complex; 20.1 nM in test [1]; 2.4 nM in test [2]; 3.5 nM in test [3]; 3.8 nM in the test on SW620 cells (KRAS G12V); 72.6 nM with AGS cells (KRAS G12D). Moreover, the half-inhibitory concentration (IC50) in test [4] is 24.1 nM.

Regarding `CO[C@@H](C)c1ncc(N2CCN(C)CC2)cc1-c1c2c3cc(cc4c3n1CCC4)-c1csc(n1)C[C@H](NC(=O)[C@H]1[C@@H]3COC[C@@H]31)C(=O)N1CCC[C@H](N1)C(=O)OCC(C)(C)C2` (atropisomer, axis not shown; (M)) [Example 15, (1S,5R,6r)-N-[(7S,13S)-(20M)-20-[2-[(1S)-1-methoxyethyl]-5-(4-methylpiperazin-1-yl)-3-pyridyl]-17,17-dimethyl-8,14-dioxo-15-oxa-4-thia-9,21,30,31-tetrazahexacyclo[23.3.1.1^2,5.1^9,13.0^19,27.0^21,26]hentriaconta-1 (28),2,5 (31), 19,25 (29),26-hexaen-7-yl]-3-oxabicyclo[3.1.0]hexane-6-carboxamide], the IC50 against KRAS G12C-BRAF complex worked out at 11.9 nM; in test [1], 5.2 nM; in test [2], 0.8 nM; in test [3], 0.7 nM; with SW620 cells (KRAS G12V), 1.2 nM; with AGS cells (KRAS G12D), 15.9 nM. Moreover, in test [4], the 50% inhibitory concentration (IC50) came out at 6.6 nM.

On to `CO[C@@H](C)c1ncc(N2CCOCC2)cc1-c1c2c3cc(cc4c3n1CCO4)-c1csc(n1)C[C@H](NC(=O)[C@H]1C[C@@H]1C)C(=O)N1CCC[C@H](N1)C(=O)OCC(C)(C)C2` (atropisomer, axis not shown; (M)) [Example 8, (1S,2S)-N-[(7S,13S)-(20M)-20-[2-[(1S)-1-methoxyethyl]-5-morpholino-3-pyridyl]-17,17-dimethyl-8,14-dioxo-15,24-dioxa-4-thia-9,21,30,31-tetrazahexacyclo[23.3.1.1^2,5.1^9,13.0^19,27.0^21,26]hentriaconta-1 (28),2,5 (31), 19,25 (29),26-hexaen-7-yl]-2-methyl-cyclopropanecarboxamide], for which the half-inhibitory concentration (IC50) against KRAS G12C-BRAF complex was found to be 23.7 nM; in test [1] it was 7.1 nM; in test [2], 1.2 nM; in test [3] it was 2.6 nM; in the test with SW620 cells (KRAS G12V), 1.1 nM; in the test with AGS cells (KRAS G12D), 18.7 nM. Also, in test [4], half-maximal inhibition (IC50) was put at 5.9 nM.

As to `CO[C@@H](C)c1ncc(N2CCN(C)CC2)cc1-c1c2c3cc(cc4c3n1CCC4)-c1csc(n1)C[C@H](NC(=O)[C@@H]1C[C@H]1c1ncccn1)C(=O)N1CCC[C@H](N1)C(=O)OCC(C)(C)C2` (atropisomer, axis not shown) [Example 81, (1R,2R)-N-[(7S,13S)-20-[2-[(1S)-1-methoxyethyl]-5-(4-methylpiperazin-1-yl)-3-pyridyl]-17,17-dimethyl-8,14-dioxo-15-oxa-4-thia-9,21,30,31-tetrazahexacyclo[23.3.1.1^2,5.1^9,13.0^19,27.0^21,26]hentriaconta-1 (28),2,5 (31),19,25 (29),26-hexaen-7-yl]-2-pyrimidin-2-yl-cyclopropanecarboxamide], the IC50 turned out to be 30.5 nM against KRAS G12C-BRAF complex; 6.5 nM in test [1]; 1.2 nM in test [2]; 1.6 nM in test [3]; 0.8 nM in the test on SW620 cells (KRAS G12V); 23.4 nM in the test on AGS cells (KRAS G12D). Further, the IC50 in test [4] was 5.3 nM.

For `CCN1CCN(c2cnc([C@H](C)OC)c(-c3c4c5cc(cc6c5n3CCC6)-c3csc(n3)C[C@H](NC(=O)[C@H]3[C@H](C)[C@@H]3C)C(=O)N3CCC[C@H](N3)C(=O)OCC(C)(C)C4)c2)CC1` (atropisomer, axis not shown; (M)) [Example 113, (1r,2R,3S)-N-[(7S,13S)-(20M)-20-[5-(4-ethylpiperazin-1-yl)-2-[(1S)-1-methoxyethyl]-3-pyridyl]-17,17-dimethyl-8,14-dioxo-15-oxa-4-thia-9,21,30,31-tetrazahexacyclo[23.3.1.1^2,5.1^9,13.0^19,27.0^21,26]hentriaconta-1 (28),2,5 (31), 19,25 (29),26-hexaen-7-yl]-2,3-dimethyl-cyclopropanecarboxamide], the half-inhibitory concentration (IC50) on KRAS G12C-BRAF complex was 4.3 nM; in test [1] it was 2.2 nM; in test [2], 0.4 nM; in test [3] it was 0.6 nM; in the test on SW620 cells (KRAS G12V), 0.3 nM; in the test on AGS cells (KRAS G12D), 1.5 nM. In test [4], inhibition was half-maximal at 2.1 nM (IC50).

Consider `CO[C@@H](C)c1ncc(N2CCN(C)CC2)cc1-c1c2c3cc(cc4c3n1CCO4)-c1csc(n1)C[C@H](NC(=O)C1CC1c1ccc(F)cc1)C(=O)N1CCC[C@H](N1)C(=O)OCC(C)(C)C2` (stereo partly drawn) [Example 59, 2-(4-fluorophenyl)-N-[(7S,13S)-(20M)-20-[2-[(1S)-1-methoxyethyl]-5-(4-methylpiperazin-1-yl)-3-pyridyl]-17,17-dimethyl-8,14-dioxo-15,24-dioxa-4-thia-9,21,30,31-tetrazahexacyclo[23.3.1.1^2,5.1^9,13.0^19,27.0^21,26]hentriaconta-1 (29),2,5 (31),19,25,27-hexaen-7-yl]cyclopropanecarboxamide], for which the half-inhibitory concentration (IC50) at KRAS G12C-BRAF complex worked out at 16.7 nM; in test [1] it was 21.3 nM; in test [2], 3 nM; in test [3], 8.8 nM; in the test with SW620 cells (KRAS G12V), 7.4 nM; with AGS cells (KRAS G12D), 87.2 nM. This compound also came in with an IC50 in test [4] of 33.7 nM.

Turning to `CO[C@@H](C)c1ncc(N2CCN(C)CC2)cc1-c1c2c3cc(cc4c3n1CCO4)-c1csc(n1)C[C@H](NC(=O)[C@H]1C[C@@H]1c1ccccc1)C(=O)N1CCC[C@H](N1)C(=O)OCC(C)(C)C2` (atropisomer, axis not shown; (M)) [Example 51, (1S,2S)-N-[(7S,13S)-(20M)-20-[2-[(1S)-1-methoxyethyl]-5-(4-methylpiperazin-1-yl)-3-pyridyl]-17,17-dimethyl-8,14-dioxo-15,24-dioxa-4-thia-9,21,30,31-tetrazahexacyclo[23.3.1.1^2,5.1^9,13.0^19,27.0^21,26]hentriaconta-1 (29),2,5 (31), 19,25,27-hexaen-7-yl]-2-phenyl-cyclopropanecarboxamide], the IC50 at KRAS G12C-BRAF complex was 21.1 nM; in test [1], 4.8 nM; in test [2] it was 0.7 nM; in test [3], 1 nM; in the test with SW620 cells (KRAS G12V), 1.4 nM; in the test with AGS cells (KRAS G12D) it was 13.3 nM. In test [4], the IC50 stood at 5.9 nM.
